Structures can show the parent of a compound that is named as a salt. Where two headings read alike, the source gives them in different places.
How the values were obtained:
[1] = Pharmacokinetics: plasma levels after intravenous dosing to rats; assay type: in vivo; conditions: male, Sprague Dawley, rat, 0.95 mg/kg IV, read-out: Plasma level of Example 2
Experimental: (§1) Example prodrugs were dosed either intravenously or orally to fasted male Sprague Dawley rats. The rats underwent surgery for jugular vein cannulation 48 hrs prior to dosing. Following dosing, 0.25 mL blood samples were taken via the cannulae at 0, 5, 10, 20, 30, 45, 60, 120, 240 & 360 minutes in EDTA coated tubes. Tubes were spun at 13,000 rpm for 4 minutes and 100 ul of supernatant taken immediately and stored at −80° C. prior to analysis. Plasma samples were analysed by LC-MS/MS following extraction by protein precipitation, and levels of parent prodrug and tonabersat were measured by MRM (Multiple Reaction Monitoring) analysis against an extracted calibration curve of plasma samples spiked with the Example prodrug and tonabersat.
Example 2 was dosed according to this protocol at 0.95 mg/kg IV. […] Plasma levels of tonabersat were determined to be 130 ng/mL at 5 min and 115 ng/mL at 6 hrs clearly showing conversion of the prodrug to tonabersat over this timecourse following intravenous dosing.

[2] = Pharmacokinetics: plasma levels after oral dosing to rats; assay type: in vivo; conditions: male, Sprague Dawley, 6.1 mg/kg, rat, 6.10 mg/kg PO, read-out: Plasma level of Example 2
Experimental: as §1
Example 2 was dosed according to this protocol at 6.10 mg/kg PO. […] Plasma levels of tonabersat were determined to be 63 ng/mL at 5 min and 900 ng/mL at 6 hrs clearly showing conversion of the prodrug to tonabersat over this timecourse following oral dosing.

[3] = test system: unique stereo-selective site in rat brains; conditions: rat brain; cited from earlier work
high K+ evoked CSD [4] = conditions: cats; cited from earlier work
high K+ evoked CSD [5] = conditions: rats; cited from earlier work
[6] = test system: unique stereo-selective site in human brains; conditions: human brain; cited from earlier work

concentration at 5 min ([1]; at 5 min)	concentration at 6 h ([1]; at 6 hrs)	concentration at 5 min ([2]; at 5 min)	concentration at 6 h ([2]; at 6 hrs)	SMILES	binding affinity [3]	inhibition of high K+ evoked CSD (high K+ evoked CSD [4])	inhibition of high K+ evoked CSD (high K+ evoked CSD [5])	binding affinity [6]
730 ng/mL	< 5 ng/mL	38 ng/mL	< 5 ng/mL	CC(=O)c1ccc2c(c1)[C@H](NC(=O)c1ccc(F)c(Cl)c1)[C@H](OC(=O)CN(C)C)C(C)(C)O2 [Example 2, (3S,4S)-6-Acetyl-4-[(3-chloro-4-fluorobenzene)amido]-2,2-dimethyl-3,4-dihydro-2H-1-benzopyran-3-yl 2-(dimethylamino)acetate hydrochloride]	–	–	–	–
–	–	–	–	CC(=O)c1ccc2c(c1)[C@H](NC(=O)c1ccc(F)c(Cl)c1)[C@H](O)C(C)(C)O2 [Tonabersat]	binds selectively and with high affinity	inhibits high K+ evoked CSD	inhibits high K+ evoked CSD	binds selectively and with high affinity

— US20140011773A1, “Pro-drug Compounds” (Proximagen Limited, priority 2012, published 2014)
